# Reference: ChEMBL document CHEMBL3885881, “DrugMatrix”
# Organism: Rattus norvegicus
# Assay: DrugMatrix - Regimen: Daily Repeat
# Type: toxicity, organism-based, Sprague-Dawley
# Parameters: regimen Daily Repeat, gender Male, age 6-8 weeks
# Conditions: in vivo, po, route oral GAVAGE, vehicle .5 % CMC; for ABSOLUTE BASOPHIL / ABSOLUTE EOSINOPHIL / ABSOLUTE LYMPHOCYTE / ABSOLUTE MONOCYTE / ABSOLUTE SEGMENTED NEUTROPHIL / BASOPHIL / EOSINOPHIL / ERYTHROCYTE COUNT / HEMATOCRIT / HEMOGLOBIN / LEUKOCYTE COUNT / LYMPHOCYTE / MEAN CORPUSCULAR HEMOGLOBIN / MEAN CORPUSCULAR HEMOGLOBIN CONCENTRATION / MEAN CORPUSCULAR VOLUME / MONOCYTE / NEUTROPHIL / NUCLEATED RED BLOOD CELLS / PLATELET COUNT: tissue Blood; for ALANINE AMINOTRANSFERASE / ALBUMIN / ALKALINE PHOSPHATASE / ASPARTATE AMINOTRANSFERASE / BLOOD UREA NITROGEN / CARBON DIOXIDE / CHLORIDE / CHOLESTEROL / CREATINE PHOSPHOKINASE / CREATININE / GLUCOSE / LACTATE DEHYDROGENASE / LIPASE / PHOSPHORUS / POTASSIUM / SODIUM / TOTAL BILIRUBIN / TOTAL PROTEIN / URIC ACID: tissue Plasma
# [1] = 0 mg/kg, 72 h, dose level Control, time 3 day
# [2] = 0 mg/kg, 120 h, dose level Control, time 5 day
# [3] = 3 mg/kg, 72 h, dose level Low, time 3 day
structure (smiles),measurement,setting,value
COc1nc(C)nc(Cl)c1N=C1NCCN1 [MOXONIDINE],ABSOLUTE BASOPHIL,[1],0 CELLS/uL
same,ABSOLUTE EOSINOPHIL,[1],47.67 CELLS/uL
same,ABSOLUTE LYMPHOCYTE,[1],15937.67 CELLS/uL
same,ABSOLUTE MONOCYTE,[1],138.33 CELLS/uL
same,ABSOLUTE SEGMENTED NEUTROPHIL,[1],1443 CELLS/uL
same,BASOPHIL,[1],0%
same,EOSINOPHIL,[1],0.33%
same,ERYTHROCYTE COUNT,[1],5.45 x10E6/uL
same,HEMATOCRIT,[1],34.43%
same,HEMOGLOBIN,[1],13.38 G/DL
same,LEUKOCYTE COUNT,[1],17.57 x10E3/uL
same,LYMPHOCYTE,[1],90.33%
same,MEAN CORPUSCULAR HEMOGLOBIN,[1],24.6 pg
same,MEAN CORPUSCULAR HEMOGLOBIN CONCENTRATION,[1],38.88 G/DL
same,MEAN CORPUSCULAR VOLUME,[1],63.27 fL
same,MONOCYTE,[1],0.83%
same,NEUTROPHIL,[1],8.5%
same,NUCLEATED RED BLOOD CELLS,[1],0 /100WBC
same,PLATELET COUNT,[1],1298 x10E3/uL
same,ALANINE AMINOTRANSFERASE,[1],47.67 u/L
same,ALBUMIN,[1],4.18 G/DL
same,ALKALINE PHOSPHATASE,[1],398.5 u/L
same,ASPARTATE AMINOTRANSFERASE,[1],93.17 u/L
same,BLOOD UREA NITROGEN,[1],16 mg/dL
same,CARBON DIOXIDE,[1],29.17 mmol/L
same,CHLORIDE,[1],98.17 MEQ/L
same,CHOLESTEROL,[1],68.83 mg/dL
same,CREATINE PHOSPHOKINASE,[1],467.33 u/L
same,CREATININE,[1],0.14 mg/dL
same,GLUCOSE,[1],151.67 mg/dL
same,LACTATE DEHYDROGENASE,[1],597.5 u/L
same,LIPASE,[1],9.33 u/L
same,PHOSPHORUS,[1],11.97 mg/dL
same,POTASSIUM,[1],6.43 MEQ/L
same,SODIUM,[1],140.68 MEQ/L
same,TOTAL BILIRUBIN,[1],0.18 mg/dL
same,TOTAL PROTEIN,[1],5.82 G/DL
same,URIC ACID,[1],1.48 mg/dL
same,ABSOLUTE BASOPHIL,[2],0 CELLS/uL
same,ABSOLUTE EOSINOPHIL,[2],31 CELLS/uL
same,ABSOLUTE LYMPHOCYTE,[2],14327.83 CELLS/uL
same,ABSOLUTE MONOCYTE,[2],102.83 CELLS/uL
same,ABSOLUTE SEGMENTED NEUTROPHIL,[2],1321.67 CELLS/uL
same,BASOPHIL,[2],0%
same,EOSINOPHIL,[2],0.17%
same,ERYTHROCYTE COUNT,[2],5.79 x10E6/uL
same,HEMATOCRIT,[2],36.1%
same,HEMOGLOBIN,[2],14.15 G/DL
same,LEUKOCYTE COUNT,[2],15.78 x10E3/uL
same,LYMPHOCYTE,[2],90.5%
same,MEAN CORPUSCULAR HEMOGLOBIN,[2],24.48 pg
same,MEAN CORPUSCULAR HEMOGLOBIN CONCENTRATION,[2],39.22 G/DL
same,MEAN CORPUSCULAR VOLUME,[2],62.4 fL
same,MONOCYTE,[2],0.67%
same,NEUTROPHIL,[2],8.67%
same,NUCLEATED RED BLOOD CELLS,[2],0.17 /100WBC
same,PLATELET COUNT,[2],1211.67 x10E3/uL
same,ALANINE AMINOTRANSFERASE,[2],49 u/L
same,ALBUMIN,[2],4.27 G/DL
same,ALKALINE PHOSPHATASE,[2],356.67 u/L
same,ASPARTATE AMINOTRANSFERASE,[2],90.17 u/L
same,BLOOD UREA NITROGEN,[2],20.5 mg/dL
same,CARBON DIOXIDE,[2],29.17 mmol/L
same,CHLORIDE,[2],98 MEQ/L
same,CHOLESTEROL,[2],69.83 mg/dL
same,CREATINE PHOSPHOKINASE,[2],312 u/L
same,CREATININE,[2],0.21 mg/dL
same,GLUCOSE,[2],149.83 mg/dL
same,LACTATE DEHYDROGENASE,[2],322 u/L
same,LIPASE,[2],10 u/L
same,PHOSPHORUS,[2],12 mg/dL
same,POTASSIUM,[2],6.75 MEQ/L
same,SODIUM,[2],142.8 MEQ/L
same,TOTAL BILIRUBIN,[2],0.17 mg/dL
same,TOTAL PROTEIN,[2],6.1 G/DL
same,URIC ACID,[2],1.68 mg/dL
same,ABSOLUTE BASOPHIL,[3],0 CELLS/uL
same,ABSOLUTE EOSINOPHIL,[3],88 CELLS/uL
same,ABSOLUTE LYMPHOCYTE,[3],13570 CELLS/uL
same,ABSOLUTE MONOCYTE,[3],44 CELLS/uL
same,ABSOLUTE SEGMENTED NEUTROPHIL,[3],1298 CELLS/uL
same,BASOPHIL,[3],0%
same,EOSINOPHIL,[3],0.67%
same,ERYTHROCYTE COUNT,[3],5.63 x10E6/uL
same,HEMATOCRIT,[3],34.87%
same,HEMOGLOBIN,[3],13.07 G/DL
same,LEUKOCYTE COUNT,[3],15 x10E3/uL
same,LYMPHOCYTE,[3],89.67%
same,MEAN CORPUSCULAR HEMOGLOBIN,[3],23.2 pg
same,MEAN CORPUSCULAR HEMOGLOBIN CONCENTRATION,[3],37.5 G/DL
same,MEAN CORPUSCULAR VOLUME,[3],61.9 fL
same,MONOCYTE,[3],0.33%
same,NEUTROPHIL,[3],9.33%
same,NUCLEATED RED BLOOD CELLS,[3],0 /100WBC
same,PLATELET COUNT,[3],1254.67 x10E3/uL
same,ALANINE AMINOTRANSFERASE,[3],48 u/L
same,ALBUMIN,[3],4 G/DL
same,ALKALINE PHOSPHATASE,[3],327.67 u/L
same,ASPARTATE AMINOTRANSFERASE,[3],95 u/L
same,BLOOD UREA NITROGEN,[3],17 mg/dL
same,CARBON DIOXIDE,[3],29 mmol/L
same,CHLORIDE,[3],99.33 MEQ/L
same,CHOLESTEROL,[3],69.67 mg/dL
same,CREATINE PHOSPHOKINASE,[3],328.67 u/L
same,CREATININE,[3],0.17 mg/dL
same,GLUCOSE,[3],144 mg/dL
same,LACTATE DEHYDROGENASE,[3],269.67 u/L
same,LIPASE,[3],10.33 u/L
same,PHOSPHORUS,[3],12.07 mg/dL
same,POTASSIUM,[3],5.9 MEQ/L
same,SODIUM,[3],142.9 MEQ/L
same,TOTAL BILIRUBIN,[3],0.23 mg/dL
same,TOTAL PROTEIN,[3],5.53 G/DL
same,URIC ACID,[3],1.4 mg/dL
